Data as given in PubChem BioAssay (NCI).
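Cultured in 96-well plates, cells were exposed to test compound for 48 hours across five concentrations. Here, GI50 denotes the concentration required for 50% inhibition of growth. TGI: concentration producing complete growth inhibition.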

Experiments:
Assay in all cases: DTP human tumour cell line panel, 48 h
SNB-75 CNS = test system: SNB-75 CNS
DU-145 prostate = test system: DU-145 prostate
U251 CNS = test system: U251 CNS
SN12C renal = test system: SN12C renal
OVCAR-4 ovarian = test system: OVCAR-4 ovarian
K-562 leukemia = test system: K-562 leukemia
ACHN renal = test system: ACHN renal
786-0 renal = test system: 786-0 renal
SK-OV-3 ovarian = test system: SK-OV-3 ovarian
HS 578T breast = test system: HS 578T breast
CAKI-1 renal = test system: CAKI-1 renal
A549 NSCLC = test system: A549 NSCLC
HOP-62 NSCLC = test system: HOP-62 NSCLC
MDA-MB-231 breast = test system: MDA-MB-231 breast
PC-3 prostate = test system: PC-3 prostate
SW-620 colon = test system: SW-620 colon
RPMI-8226 leukemia = test system: RPMI-8226 leukemia
UACC-62 melanoma = test system: UACC-62 melanoma
TK-10 renal = test system: TK-10 renal
HCT-116 colon = test system: HCT-116 colon
HOP-92 NSCLC = test system: HOP-92 NSCLC
UO-31 renal = test system: UO-31 renal
OVCAR-8 ovarian = test system: OVCAR-8 ovarian
MDA-MB-435 = test system: MDA-MB-435
OVCAR-3 ovarian = test system: OVCAR-3 ovarian
EKVX NSCLC = test system: EKVX NSCLC
KM12 colon = test system: KM12 colon
HCT-15 colon = test system: HCT-15 colon
SF-295 CNS = test system: SF-295 CNS
HCC-2998 colon = test system: HCC-2998 colon
IGROV1 ovarian = test system: IGROV1 ovarian
NCI-H460 lung = test system: NCI-H460 lung
BT-549 breast = test system: BT-549 breast
SK-MEL-5 melanoma = test system: SK-MEL-5 melanoma
COLO 205 colon = test system: COLO 205 colon
LOX IMVI melanoma = test system: LOX IMVI melanoma
OVCAR-5 ovarian = test system: OVCAR-5 ovarian
SK-MEL-2 melanoma = test system: SK-MEL-2 melanoma
SK-MEL-28 melanoma = test system: SK-MEL-28 melanoma
RXF 393 renal = test system: RXF 393 renal
M14 melanoma = test system: M14 melanoma
SNB-19 CNS = test system: SNB-19 CNS
NCI/ADR-RES ovarian = test system: NCI/ADR-RES ovarian
NCI-H522 lung = test system: NCI-H522 lung

COc1cc2c(c(OC)c1OC)-c1ncc3c(OC)c(OC)c(OC)cc3c1C2
GI50 (SNB-75 CNS): > 100 µM | TGI (SNB-75 CNS): > 100 µM | GI50 (DU-145 prostate): 29.6 µM | TGI (DU-145 prostate): > 100 µM | GI50 (U251 CNS): 36.9 µM | TGI (U251 CNS): > 100 µM | GI50 (SN12C renal): 20.3 µM | TGI (SN12C renal): 64.8 µM | GI50 (OVCAR-4 ovarian): 49.6 µM | TGI (OVCAR-4 ovarian): > 100 µM | GI50 (K-562 leukemia): 19.2 µM | TGI (K-562 leukemia): 50.3 µM | GI50 (ACHN renal): 31.2 µM | TGI (ACHN renal): > 100 µM | GI50 (786-0 renal): 36.5 µM | TGI (786-0 renal): > 100 µM | GI50 (SK-OV-3 ovarian): 29.5 µM | TGI (SK-OV-3 ovarian): 74.9 µM | GI50 (HS 578T breast): 29.9 µM | TGI (HS 578T breast): 67.3 µM | GI50 (CAKI-1 renal): 23.9 µM | TGI (CAKI-1 renal): 83.5 µM | GI50 (A549 NSCLC): 27.7 µM | TGI (A549 NSCLC): > 100 µM | GI50 (HOP-62 NSCLC): 28.5 µM | TGI (HOP-62 NSCLC): 86 µM | GI50 (MDA-MB-231 breast): 26.2 µM | TGI (MDA-MB-231 breast): 86.8 µM | GI50 (PC-3 prostate): 33.7 µM | TGI (PC-3 prostate): > 100 µM | GI50 (SW-620 colon): 37 µM | TGI (SW-620 colon): > 100 µM | GI50 (RPMI-8226 leukemia): 19 µM | TGI (RPMI-8226 leukemia): 54.9 µM | GI50 (UACC-62 melanoma): 21.1 µM | TGI (UACC-62 melanoma): 49.3 µM | GI50 (TK-10 renal): 22.5 µM | TGI (TK-10 renal): 63.5 µM | GI50 (HCT-116 colon): 27.8 µM | TGI (HCT-116 colon): > 100 µM | GI50 (HOP-92 NSCLC): 52.1 µM | TGI (HOP-92 NSCLC): > 100 µM | GI50 (UO-31 renal): 18 µM | TGI (UO-31 renal): 47.2 µM | GI50 (OVCAR-8 ovarian): 18.9 µM | TGI (OVCAR-8 ovarian): 58.2 µM | GI50 (MDA-MB-435): 23 µM | TGI (MDA-MB-435): 73.5 µM | GI50 (OVCAR-3 ovarian): 21.5 µM | TGI (OVCAR-3 ovarian): 50.9 µM | GI50 (EKVX NSCLC): 32.7 µM | TGI (EKVX NSCLC): > 100 µM | GI50 (KM12 colon): 16.1 µM | TGI (KM12 colon): 40.4 µM | GI50 (HCT-15 colon): 28.6 µM | TGI (HCT-15 colon): > 100 µM | GI50 (SF-295 CNS): 22 µM | TGI (SF-295 CNS): 47.1 µM | GI50 (HCC-2998 colon): 16.1 µM | TGI (HCC-2998 colon): 30.7 µM | GI50 (IGROV1 ovarian): 34.1 µM | TGI (IGROV1 ovarian): 93 µM | GI50 (NCI-H460 lung): 32.6 µM | TGI (NCI-H460 lung): > 100 µM | GI50 (BT-549 breast): 25.4 µM | TGI (BT-549 breast): 55.2 µM | GI50 (SK-MEL-5 melanoma): 16 µM | TGI (SK-MEL-5 melanoma): 30.5 µM | GI50 (COLO 205 colon): 19.9 µM | TGI (COLO 205 colon): 38.2 µM | GI50 (LOX IMVI melanoma): 16.2 µM | TGI (LOX IMVI melanoma): 32.3 µM | GI50 (OVCAR-5 ovarian): 17.4 µM | TGI (OVCAR-5 ovarian): 77.9 µM | GI50 (SK-MEL-2 melanoma): 30.8 µM | TGI (SK-MEL-2 melanoma): 74.4 µM | GI50 (SK-MEL-28 melanoma): 34.9 µM | TGI (SK-MEL-28 melanoma): > 100 µM | GI50 (RXF 393 renal): 25.2 µM | TGI (RXF 393 renal): 83.2 µM | GI50 (M14 melanoma): 39.8 µM | TGI (M14 melanoma): > 100 µM | GI50 (SNB-19 CNS): 40.1 µM | TGI (SNB-19 CNS): > 100 µM | GI50 (NCI/ADR-RES ovarian): 15.6 µM | TGI (NCI/ADR-RES ovarian): 38 µM | GI50 (NCI-H522 lung): 19.3 µM | TGI (NCI-H522 lung): 48.3 µM
